Source: PubChem BioAssay AID248 (DTP/NCI, 2004)
Values joined by “and” are separate entries in the source; they are usually repeats but may differ in a detail not shown here. Equal entries are not always repeated. Inconclusive results and toxic doses are left out. Rule as the data show it: active = T/C of 150% or more; inactive = T/C below 125%.

System: L1210 leukemia ip in BDF1 mice, survival T/C
Experiment: NCI In Vivo Anticancer Drug Screen. Data for tumor model L1210 Leukemia (intraperitoneal) in B6D2F1 (BDF1) mice
Details: endpoint: mean survival time, higher = longer survival
Outline: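 Read-out is survival time, reported as the treated-group measurement over the vehicle-control measurement.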

[1] = dose: 100.0 mg/kg/injection, schedule: Q01DX009 (ip), vehicle: saline with Tween-80
[2] = dose: 200.0 mg/kg/injection, schedule: Q01DX009 (ip), vehicle: saline with Tween-80
[3] = dose: 400.0 mg/kg/injection, schedule: Q01DX009 (ip), vehicle: saline with Tween-80
[4] = dose: 100.0 mg/kg/injection, schedule: Q04DX003 (ip), vehicle: saline with Tween-80
[5] = dose: 400.0 mg/kg/injection, schedule: Q04DX003 (ip), vehicle: saline with Tween-80
[6] = dose: 100.0 mg/kg/injection, schedule: Q04DX003 (ip), vehicle: saline
[7] = dose: 50.0 mg/kg/injection, schedule: Q01DX009 (ip), vehicle: saline
[8] = dose: 12.5 mg/kg/injection, schedule: Q01DX009 (ip), vehicle: saline
[9] = dose: 25.0 mg/kg/injection, schedule: Q01DX009 (ip), vehicle: saline

Measured: T/C

Cc1cc[n+]2cc3c(ccc4ccccc43)c(C)c2c1
inactive: dose: 2.0 mg/kg/injection, schedule: Q01DX015 (ip), vehicle: carboxymethylcellulose (CMC) 103 % of control | dose: 4.0 mg/kg/injection, schedule: Q01DX015 (ip), vehicle: carboxymethylcellulose (CMC) 124 % of control | dose: 8.0 mg/kg/injection, schedule: Q01DX015 (ip), vehicle: carboxymethylcellulose (CMC) 117 % of control | dose: 16.0 mg/kg/injection, schedule: Q01DX015 (ip), vehicle: carboxymethylcellulose (CMC) 98 % of control | dose: 25.0 mg/kg/injection, schedule: Q01DX001 (ip), vehicle: carboxymethylcellulose (CMC) 107 % of control

Cc1ccc(S/C(=N\O)C(C)C)cc1
inactive: dose: 100.0 mg/kg/injection, schedule: Q04DX002 (ip), vehicle: Klucel (hydroxypropylcellulose) (HPC) 108 % of control | dose: 200.0 mg/kg/injection, schedule: Q04DX002 (ip), vehicle: Klucel (hydroxypropylcellulose) (HPC) 92 % of control | dose: 400.0 mg/kg/injection, schedule: Q04DX002 (ip), vehicle: Klucel (hydroxypropylcellulose) (HPC) 110 % of control

O=C(O)/C=C/C(=O)Nc1ccc(Br)c(Cl)c1
inactive: [1] 86 % of control

CC1(C)N=C(N)N=C(N)N1c1ccc(C(F)(F)F)cc1
inactive: dose: 25.0 mg/kg/injection, schedule: Q01DX001 (ip), vehicle: saline 107 % of control | dose: 50.0 mg/kg/injection, schedule: Q01DX001 (ip), vehicle: saline 117 % of control | dose: 100.0 mg/kg/injection, schedule: Q01DX001 (ip), vehicle: saline 103 % of control and 107 % of control

Nc1ccccc1CCc1ccccc1N
inactive: [1] 98 % of control | [2] 98 % of control | [3] 94 % of control

Cc1ccc(NC2=CC(=O)c3ccccc3C2=O)cc1
inactive: dose: 75.0 mg/kg/injection, schedule: Q01DX001 (ip), vehicle: carboxymethylcellulose (CMC) 93 % of control | dose: 150.0 mg/kg/injection, schedule: Q01DX001 (ip), vehicle: carboxymethylcellulose (CMC) 95 % of control

COc1ccc(/C=C\c2nc3ccccc3c(=O)[nH]2)cc1
inactive: [4] 95 % of control | dose: 200.0 mg/kg/injection, schedule: Q04DX003 (ip), vehicle: saline with Tween-80 88 % of control | [5] 95 % of control

CCOC(=O)C1CC1Cc1ccccc1 (centres undefined)
inactive: [1] 101 % of control | [6] 100 % of control | [2] 102 % of control | dose: 200.0 mg/kg/injection, schedule: Q04DX003 (ip), vehicle: saline 105 % of control | [3] 104 % of control | dose: 400.0 mg/kg/injection, schedule: Q04DX003 (ip), vehicle: saline 94 % of control

CN(CCO)C(=O)/C=C/c1ccccc1
inactive: [7] 100 % of control | dose: 100.0 mg/kg/injection, schedule: Q01DX009 (ip), vehicle: saline 94 % of control | dose: 200.0 mg/kg/injection, schedule: Q01DX009 (ip), vehicle: saline 92 % of control

CCCCCC[P+](c1ccccc1)(c1ccccc1)c1ccccc1
inactive: dose: 6.25 mg/kg/injection, schedule: Q01DX009 (ip), vehicle: saline 99 % of control | dose: 6.25 mg/kg/injection, schedule: Q04DX003 (ip), vehicle: saline 101 % of control | [8] 107 % of control | dose: 12.5 mg/kg/injection, schedule: Q04DX003 (ip), vehicle: saline 100 % of control | [9] 98 % of control | dose: 25.0 mg/kg/injection, schedule: Q04DX003 (ip), vehicle: saline 103 % of control

Cc1ccc(S(=O)(=O)OCCN(CCOS(=O)(=O)c2ccc(C)cc2)c2ccc(C=O)cc2)cc1
inactive: dose: 50.0 mg/kg/injection, schedule: Q01DX001 (ip), vehicle: carboxymethylcellulose (CMC) 114 % of control | dose: 100.0 mg/kg/injection, schedule: Q01DX001 (ip), vehicle: carboxymethylcellulose (CMC) 102 % of control and 120 % of control | dose: 175.0 mg/kg/injection, schedule: Q01DX001 (ip), vehicle: carboxymethylcellulose (CMC) 121 % of control | dose: 200.0 mg/kg/injection, schedule: Q01DX001 (ip), vehicle: carboxymethylcellulose (CMC) 98 % of control and 122 % of control | dose: 265.0 mg/kg/injection, schedule: Q01DX001 (ip), vehicle: carboxymethylcellulose (CMC) 116 % of control | dose: 600.0 mg/kg/injection, schedule: Q01DX001 (ip), vehicle: carboxymethylcellulose (CMC) 115 % of control

CCCCCCCCCCCCn1cnc2ncnc(Cl)c21
inactive: dose: 12.5 mg/kg/injection, schedule: Q01DX005 (ip), vehicle: other 102 % of control | dose: 25.0 mg/kg/injection, schedule: Q01DX005 (ip), vehicle: other 98 % of control | dose: 50.0 mg/kg/injection, schedule: Q01DX005 (ip), vehicle: other 98 % of control | dose: 100.0 mg/kg/injection, schedule: Q01DX005 (ip), vehicle: other 96 % of control

C=C1CC2(CCC23COC(=O)C3=C)OC1=O (centres undefined)
inactive: dose: 1.56 mg/kg/injection, schedule: Q01DX001 (ip), vehicle: other 98 % of control | dose: 3.12 mg/kg/injection, schedule: Q01DX001 (ip), vehicle: other 102 % of control and 109 % of control | dose: 6.25 mg/kg/injection, schedule: Q01DX001 (ip), vehicle: other 105 % of control and 121 % of control | dose: 12.5 mg/kg/injection, schedule: Q01DX001 (ip), vehicle: other 102 % of control

C=CCNC(=S)Nc1cc(Cl)ccc1C
inactive: dose: 100.0 mg/kg/injection, schedule: Q01DX009 (ip), vehicle: Klucel (hydroxypropylcellulose) (HPC) 90 % of control | dose: 100.0 mg/kg/injection, schedule: Q04DX003 (ip), vehicle: Klucel (hydroxypropylcellulose) (HPC) 92 % of control | dose: 200.0 mg/kg/injection, schedule: Q01DX009 (ip), vehicle: Klucel (hydroxypropylcellulose) (HPC) 86 % of control | dose: 200.0 mg/kg/injection, schedule: Q04DX003 (ip), vehicle: Klucel (hydroxypropylcellulose) (HPC) 100 % of control | dose: 400.0 mg/kg/injection, schedule: Q04DX003 (ip), vehicle: Klucel (hydroxypropylcellulose) (HPC) 95 % of control

COC(=O)/C=C(\C)Nc1ccc(C(=O)C2CCCCC2)cc1
inactive: dose: 100.0 mg/kg/injection, schedule: Q01DX001 (ip), vehicle: other 90 % of control | dose: 200.0 mg/kg/injection, schedule: Q01DX001 (ip), vehicle: other 95 % of control | dose: 400.0 mg/kg/injection, schedule: Q01DX001 (ip), vehicle: other 96 % of control

CC1CCC=C2C(=O)C3OC3C(C(C)(C)O)C21C (centres undefined)
inactive: dose: 100.0 mg/kg/injection, schedule: Q01DX009 (ip), vehicle: acetone 98 % of control | [4] 90 % of control | dose: 200.0 mg/kg/injection, schedule: Q01DX009 (ip), vehicle: acetone 96 % of control | dose: 400.0 mg/kg/injection, schedule: Q01DX009 (ip), vehicle: acetone 100 % of control | [5] 93 % of control

CC1CCN(C(=S)[S-])CC1.CC1CCN(C(=S)[S-])CC1.[Zn]
inactive: [8] 111 % of control | [9] 107 % of control | [7] 100 % of control | [6] 103 % of control

O=[N+]([O-])c1cc(Cl)c(Cl)cc1NS(=O)(=O)c1ccccc1
inactive: dose: 25.0 mg/kg/injection, schedule: Q01DX Z (ip), vehicle: carboxymethylcellulose (CMC) 101 % of control | dose: 50.0 mg/kg/injection, schedule: Q01DX Z (ip), vehicle: carboxymethylcellulose (CMC) 98 % of control | dose: 100.0 mg/kg/injection, schedule: Q01DX Z (ip), vehicle: carboxymethylcellulose (CMC) 101 % of control | dose: 200.0 mg/kg/injection, schedule: Q01DX Z (ip), vehicle: carboxymethylcellulose (CMC) 96 % of control | dose: 275.0 mg/kg/injection, schedule: Q01DX015 (ip), vehicle: carboxymethylcellulose (CMC) 90 % of control | dose: 350.0 mg/kg/injection, schedule: Q01DX015 (ip), vehicle: carboxymethylcellulose (CMC) 98 % of control | dose: 425.0 mg/kg/injection, schedule: Q01DX015 (ip), vehicle: carboxymethylcellulose (CMC) 111 % of control | dose: 700.0 mg/kg/injection, schedule: Q01DX015 (ip), vehicle: carboxymethylcellulose (CMC) 86 % of control
